In patent publication US20040058357A1 (priority 2003, published 2004):

What was measured:
hippocampal slices = assay type: cell-based, mice
PC12 cells = assay type: cell-based
AChE [1] = assay type: cell-based
AChE-S mRNA = conditions: rat, in vivo
AChE [2] = conditions: rat, in vivo
AChE [3] = conditions: rat, in vivo; remark: listed apart in the source

NC(CCCP(=O)(O)O)C(=O)O (stereo not drawn) [APV, aminophosphonopentanoic acid]
Effect on the evoked pfp (hippocampal slices): blocked

CN1[C@@H]2CC[C@H]1C[C@@H](OC(=O)C(CO)c1ccccc1)C2 (stereo partly drawn) [atropine]
Block of the evoked response (hippocampal slices): over 90%
Reversal of the physostigmine-induced response (hippocampal slices): 70%

C[C@]12C[C@H](O)[C@H]3[C@@H](CCC4=CC(=O)CC[C@@]43C)[C@@H]1CC[C@@H]2C(=O)CO [corticosterone]
Increase in labeling intensities of both AChE splice variants versus vehicle-treated cells (PC12 cells): 30-50%
Increase in acetylthiocholine hydrolytic capacity of AChE (AChE [1]): 25±14%

CNC(=O)Oc1ccc2c(c1)[C@]1(C)CCN(C)[C@@H]1N2C [physostigmine]
Increase in amplitude of evoked population spikes, mean (hippocampal slices): 42±15%
Increase in amplitude of evoked population spikes, range (hippocampal slices): 20-80%
Increase over baseline in population spike amplitudes relative to non-stressed animals (hippocampal slices): 12 fold

CN1CCN(CC(=O)N2c3ccccc3C(=O)Nc3cccnc32)CC1 [pirenzepine]
AChE-S elevation by vehicle injection-induced stress under muscarinic blocker (AChE-S mRNA): 39.1±5.2 AFU
AChE-S mRNA labeling, change in words (AChE-S mRNA): somewhat lower increase
DFP-induced AChE-S expression (AChE-S mRNA): 30.4±4.9 AFU
Effect on AChE-S or -R levels after 24 hours (AChE-S mRNA): did not show any effect
DFP-induced increase of G1:G4 ratio under co-injection (AChE [2]): prevented
Cortical DFP-induced decrease in AChE activity under pirenzepine pre-treatment (AChE [3]): 44 % of control
Hippocampal regaining of AChE activity after DFP under pirenzepine pre-treatment (AChE [3]): 63 % of control

CN1[C@@H]2C[C@@H](OC(=O)[C@H](CO)c3ccccc3)C[C@H]1[C@@H]1O[C@@H]12 [scopolamine]
AChE-S elevation by vehicle injection-induced stress under muscarinic blocker (AChE-S mRNA): 39.6±3.3 AFU
AChE-S mRNA labeling, change in words (AChE-S mRNA): conspicuous increases
DFP-induced AChE-S expression (AChE-S mRNA): 35.1±10 AFU
Effect on AChE-S or -R levels after 24 hours (AChE-S mRNA): did not show any effect
DFP-induced increase of G1:G4 ratio under co-injection (AChE [2]): prevented
Effect on the DFP-induced decrease in AChE activities (AChE [3]): no significant effect
